# Test results from patent US8575337B2, “Oxazolidinone derivative having fused ring” (Research Foundation Itsuu Laboratory, priority 2008, dated 2013).
# Key:
# Assay in all cases: MIC determination, CLSI standard method
# Format in all cases: cell-based
# E. faecium SR7940 (VRE) = conditions: Enterococcus faecium, cation-adjusted Mueller Hinton Broth, inoculum about 5×10^5 CFU/mL
# Procedure: (§1) The compounds of the above Examples were tested for antimicrobial activity.
# (§2) Minimal inhibitory concentration (MIC: μg/ml) against different strains of bacteria was determined according to the standard method recommended by CLSI (clinical and laboratory standards institute). The samples used were prepared by dissolving the compound in DMSO at the concentration 1280 μg/mL, followed by a two fold serial dilution with DMSO. The sample was added to a bacteria suspension at the concentration of 5%, and MIC was determined. Cation-adjusted Mueller Hinton Broth was used as a culture media. The inoculation concentration was about 5×10^5 CFU/mL.
# S. aureus NRS271 (LZD-R) = conditions: Staphylococcus aureus, cation-adjusted Mueller Hinton Broth, inoculum about 5×10^5 CFU/mL
# Procedure: as §1, §2
# S. aureus SR3637 (MRSA) = conditions: Staphylococcus aureus, cation-adjusted Mueller Hinton Broth, inoculum about 5×10^5 CFU/mL
# Procedure: as §1, §2
MIC (E. faecium SR7940 (VRE)),MIC (S. aureus NRS271 (LZD-R)),MIC (S. aureus SR3637 (MRSA)),SMILES
2 µg/mL,32 µg/mL,2 µg/mL,"CC(=O)NC[C@H]1CN(c2ccc(N3CCOCC3)c(F)c2)C(=O)O1 [Linezolid, (S)-n-[[3-[3-fluoro-4-(4-morpholinyl)phenyl]-2-oxo-5-oxazolidinyl]methyl]acetamide]"
0.25 µg/mL,2 µg/mL,0.25 µg/mL,CC(=O)NC[C@H]1CN(c2ccc(-c3ccn4ccnc4c3)c(F)c2)C(=O)O1 [Example 18]
